Data as given in article PMC5007466, “VCP recruitment to mitochondria causes mitophagy impairment and neurodegeneration in models of Huntington's disease” (Nature Communications, 2016).

What was measured:
[1] = system: R6/2 mice; assay: DARPP-32 protein level in R6/2 striatal extracts; type: in vivo, mouse; conditions: 3 mg kg^−1 per day, n=6
Experimental: (§1) Male hemizygous R6/2 mice (Tg) and their age-matched wt littermates (5-week-old) were implanted with a 28-day osmotic pump (Alzet, Cupertino CA) containing TAT control peptide or HV-3 peptide, which delivered peptides to the mice at a rate of 3 mg kg^−1 per day. The first pump was implanted subcutaneously in the back of 5-week-old mice between the shoulders and replaced once, after 4 weeks.
Protein concentrations were determined by Bradford assay. Protein was resuspended in Laemmli buffer, loaded on SDS–PAGE, and transferred onto nitrocellulose membranes. Membranes were probed with the indicated antibodies, followed by visualization with ECL. Representative blots have been cropped for presentation. Images of full-size blots are presented in Supplementary Fig. 9.

[2] = system: HD patient-iPS cell derived neurons; assay: LDH release after BDNF withdrawal; type: cell-based, human; conditions: 1 μM per day for 5 days, BDNF withdrawal 24 h
Experimental: Figure 4 HV-3 treatment reduces mitochondrial damage and cell death in HD cell cultures. Mouse HdhQ7 and HdhQ111 striatal cells were treated with control peptide TAT or peptide HV-3 (3 uM/day for 3 days). (a) Left panel: Mitochondrial membrane potential (MMP) was determined by TMRM fluorescent dye. Right panel: HdhQ111 cells were transfected with control siRNA (siCon) and VCP siRNA (siVCP) for three days. The MMP was determined by TMRM in HdhQ111 cells treated with TAT or HV-3. (b) Mitochondrial morphology was determined by staining cells with anti-Tom20 antibody. Scale bar: 10 μm. The percentage of cells with fragmented mitochondria relative to the total number of cells was quantitated. At least 100 cells per group were counted. (c) Mitochondrial morphology was determined by EM. The length of mitochondria and the number of mitophagosomes were quantitated. At least 90 mitochondria per group were counted. […] HMGB1 release into culture medium was determined by IB analysis with anti-HMGB1 antibody. […] Cell death was determined by the release of LDH. […] (g) Quantitation of neurite length of medium spiny neurons. At least 50 neurons per group were counted by an observer blind to experimental conditions. (h) Left: the MMP was determined by TMRM fluorescent dye. […] Mitochondrial length along neurites of DARPP32/Tuj1-positive neurons was quantitated. […]

[3] = system: wt mice (R6/2 littermates); assay: Motor ability, body weight, life span of wt littermates; type: in vivo, mouse; conditions: 3 mg kg^−1 per day, 5–13 weeks of age
Experimental: as §1
Gross locomotor activity was assessed in R6/2 mice and age-matched wt littermates at the ages of 13 weeks and in YAC128 mice and age-matched wt littermates at the ages of 2, 3, 6, 9, and 12 months. In an activity chamber (Omnitech Electronics, Inc), mice were placed in the center of the chamber and allowed to explore while being tracked by an automated beam system (Vertax, Omnitech Electronics Inc). Distance moved, horizontal, vertical, and rearing activities were recorded. Because R6/2 mice were sensitive to changes in environment and handling, we only conducted one-hour locomotor activity analysis for R6/2 mice and wt littermates. We performed 24 h of locomotor activity analysis for YAC128 mice and their wt littermates.
The body weight and survival rate of HD mice and wt littermates were recorded throughout the study period.

**Q.** Which results are given for CSCC[C@H](NC(=O)[C@@H](NC(=O)[C@H](CC(C)C)NC(=O)[C@@H](NC(=O)[C@H](Cc1c[nH]cn1)NC(=O)CCCCCNC(=O)[C@H](CCCNC(=N)N)NC(=O)[C@H](CCCNC(=N)N)NC(=O)[C@H](CCCNC(=N)N)NC(=O)[C@H](CCC(N)=O)NC(=O)[C@H](CCCNC(=N)N)NC(=O)[C@H](CCCNC(=N)N)NC(=O)[C@H](CCCCN)NC(=O)[C@H](CCCCN)NC(=O)[C@H](CCCNC(=N)N)NC(=O)CNC(=O)[C@@H](N)Cc1ccc(O)cc1)C(C)C)C(C)C)C(=O)N[C@@H](CS)C(=O)N[C@@H](C)C(=O)N[C@H](C(N)=O)[C@@H](C)O [HV-3]?
**A.** DARPP-32 protein level [1]: significantly increased DARPP-32 levels in the two mouse models; neuronal cell death [2]: suppressed neuronal cell death; motor ability, body weight, life span of wt mice [3]: no effects on motor ability, body weight, or life span in wt mice
